Here are results for 13 compounds from patent publication US8759390B2, “Chromene modulators of chemokine receptor activity” (Bristol-Myers Squibb Company, priority 2008, dated 2014).

The assay concerns the target T1, CCR2 (Homo sapiens, UniProt P41597).
T1 construct: THP-1 human monocytic leukemic cell line, which expresses endogenous CCR2; endogenous in cells; host or cells: THP-1 human monocytic leukemia cells, or human PBMC / human monocytes
T1 sequence (P41597 1-360 isoform P41597-2): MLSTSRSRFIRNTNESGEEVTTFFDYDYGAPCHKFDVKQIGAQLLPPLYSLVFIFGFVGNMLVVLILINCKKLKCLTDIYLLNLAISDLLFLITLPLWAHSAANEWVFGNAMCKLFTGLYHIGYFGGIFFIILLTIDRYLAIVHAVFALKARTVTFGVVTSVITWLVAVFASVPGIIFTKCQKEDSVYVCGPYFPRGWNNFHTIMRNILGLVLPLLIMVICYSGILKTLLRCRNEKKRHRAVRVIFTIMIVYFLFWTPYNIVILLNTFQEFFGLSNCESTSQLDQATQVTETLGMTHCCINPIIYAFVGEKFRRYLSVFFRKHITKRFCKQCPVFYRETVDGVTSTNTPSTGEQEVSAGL
The experiment in a line: CCR2 binding (125I-human MCP-1 competition on human PBMC / THP-1 cells). As to conditions: n = 1 unless otherwise noted; tested in one of the assays described. Here is the method:
Antagonism of MCP-1 Binding to Human PBMC
Millipore filter plates (#MABVN1250) are treated with 100 μl of binding buffer (0.5% bovine serum albumin, 20 mM HEPES buffer and 5 mM magnesium chloride in RPMI 1640 media) for thirty minutes at room temperature. To measure binding, 50 μl of binding buffer, with or without a known concentration compound, is combined with 50 μl of ^125-I labeled human MCP-1 (to give a final concentration of […] radioligand) and 50 μl of binding buffer containing 5×10^5 cells. Cells used for such binding assays can include human peripheral blood mononuclear cells isolated by Ficoll-Hypaque gradient centrifugation, human monocytes (Weiner et al., J. Immunol. Methods. 1980, 36, 89), or the THP-1 cell line which expresses the endogenous receptor. The mixture of compound, cells and radioligand are incubated at room temperature for thirty minutes. Plates are placed onto a vacuum manifold, vacuum applied, and the plates washed three times with binding buffer containing 0.5M NaCl. The plastic skirt is removed from the plate, the plate allowed to air dry, the wells punched out and counted. The percent inhibition of binding is calculated using the total counts obtained in the absence of any competing compound and the background binding determined by addition of 100 nM MCP-1 in place of the test compound.
THP-1 Monocytic Cell Binding: Whole Cell-Based Assay
The human CCR2 binding assay was also established with the THP-1 human monocytic leukemic cell line, which expresses endogenous CCR2, using ^125I-human MCP-1 as the tracer ligand. Radioligand competition binding assays were used for assessment of binding affinity of test compounds to the CCR2 receptor. For radioligand competition studies, 100 μl containing 2.5×10^5 THP-1 cells/well (in assay buffer containing 50 mM HEPES, pH7.4, 5mM MgCl2, 1 mM CaCl2 and 0.5% BSA) were added to 96-well assay plates containing the test compounds in 3-fold serial dilution, with final concentrations ranging from 5 μM to […]. Subsequently, 50 μl ^125I-MCP-1 radioligand at a final concentration of 0.2 nM in assay buffer were added to the reaction. After a 90 minute incubation period at room temperature, the binding reaction was terminated by harvesting on GF/B filter plates (PerkinElmer Cat. No. 6005177) followed by washing with ice-cold wash buffer (50 mM HEPES, pH 7.4, 0.1% BSA, 0.5 M NaCl) to remove unbound ligand. After washing, the plate was dried for 45 minutes at 60° C. followed by addition of 40 μl MicroScint 20 scintillation fluid, sealed and analyzed by the Packard TopCount reader. Non-specific binding was determined in the presence of 10 μM (a molar excess of […]) of an in-house CCR2 small molecule antagonist (CCR2 IC50=2 nM). Specific binding of ^125I-MCP-1 was calculated as the difference between total and non-specific binding. The competition data was plotted as a percentage inhibition of radioligand specific bound in the absence of test compound (percent of total signal). After correcting for non-specific binding, IC50 values were determined The IC50 is defined as the concentration of test compound required to reduce ^125I-MCP-1 specific binding by 50% and was calculated using the four parameter logistic equation to fit the normalized data.

For `O=C(O)C1=Cc2ccccc2OC1c1ccc(Cl)nc1` (racemic) [Example 7-2, 2-(6-chloropyridin-3-yl)-2H-chromene-3-carboxylic acid], the Ki (commonly a dissociation constant, usually derived from enzyme kinetics or from competition with a known ligand) was determined as 4500 nM.

Regarding `O=C(O)C1=Cc2ccccc2OC1c1cnc(Cl)c(Cl)c1` (racemic) [Example 7-3, 2-(5,6-dichloropyridin-3-yl)-2H-chromene-3-carboxylic acid], the affinity corresponds to a Ki of 570 nM.

Consider `O=C(O)C1=Cc2ccccc2OC1c1ccc(Cl)c(Br)c1` (racemic) [Example 7-4, 2-(3-bromo-4-chlorophenyl)-2H-chromene-3-carboxylic acid], for which the Ki was 170 nM.

As for `O=C(O)C1=Cc2ccccc2OC1c1ccc(C(F)(F)F)c(Cl)c1` (racemic) [Example 7-5, 2-(3-chloro-4-trifluoromethyl-phenyl)-2H-chromene-3-carboxylic acid], the Ki came out at 390 nM.

In the case of `COc1ccc2c(c1)C=C(C(=O)O)C(c1ccc(Cl)c(Cl)c1)O2` (racemic) [Example 8, 2-(3,4-dichlorophenyl)-6-methoxy-2H-chromene-3-carboxylic acid], affinity was put at a Ki of 360 nM.

With `O=C(O)C1=Cc2ccc(F)cc2OC1c1ccc(Cl)c(Cl)c1` (racemic) [Example 9-1, 2-(3,4-dichlorophenyl)-7-fluoro-2H-chromene-3-carboxylic acid], the affinity, expressed as Ki, was 350 nM.

In turn, `O=C(O)C1=Cc2cc(Cl)ccc2OC1c1ccc(Cl)c(Cl)c1` (racemic) [Example 9-2, 2-(3,4-dichlorophenyl)-6-chloro-2H-chromene-3-carboxylic acid] displayed an inhibition constant (Ki) of 300 nM.

On to `O=C(O)C1=Cc2ccc3ccccc3c2OC1c1ccc(Cl)c(Cl)c1` (racemic) [Example 9-3, 2-(3,4-dichlorophenyl)-2H-benzo[h]chromene-3-carboxylic acid], for which the inhibition constant (Ki) is 1200 nM.

In the case of `O=C(O)C1=Cc2cc(F)ccc2OC1c1ccc(Cl)c(Cl)c1` (racemic) [Example 9-4, 2-(3,4-dichlorophenyl)-6-fluoro-2H-chromene-3-carboxylic acid], the inhibition constant (Ki) was determined as 340 nM.

The compound `O=C(O)C1=Cc2ccc(Br)cc2OC1c1ccc(Cl)c(Cl)c1` (racemic) [Example 9-5, 2-(3,4-dichlorophenyl)-7-bromo-2H-chromene-3-carboxylic acid] displayed a Ki of 720 nM.

`COc1ccc2c(c1)OC(c1ccc(Cl)c(Cl)c1)C(C(=O)O)=C2` (racemic) [Example 9-6, 2-(3,4-dichlorophenyl)-7-methoxy-2H-chromene-3-carboxylic acid] registered an inhibition constant (Ki) of 300 nM. This Ki lies about 2.4-fold lower than the previous one.

The compound `O=C(O)C1=Cc2ccccc2OC1c1ccc(Cl)c(Cl)c1` (single isomer, unassigned; (+)) [Example 6b, (+)-2-(3,4-dichlorophenyl)-2H-chromene-3-carboxylic acid] registered a Ki of 1700 nM. This Ki is about 5.7-fold higher than that of the compound before.

For the compound `O=C(O)C1=Cc2ccccc2OC1c1ccc(Cl)c(Cl)c1` (single isomer, unassigned; (-)) [Example 6a, (−)-2-(3,4-dichlorophenyl)-2H-chromene-3-carboxylic acid], the inhibitory constant (Ki) is 80 nM. This Ki lies about 21-fold lower than the previous one.
